In brackets after ≈: the same amount, converted by molar mass.
How the values were obtained:
[1] = Total antioxidant capacity (TAC), method of Prieto et al.
Experimental: (§1) All in vitro biological activities of the limonoids-rich extract and the isolated compounds were assayed in triplicate at three different concentrations (50, 100, and 200 µg/mL).
The method proposed by Prieto et al.[30] was used to determine the total antioxidant capacity (TAC) expressed as mg […] equivalent per gram weight, using ascorbic acid at the same concentrations as a standard.

[2] = Nitric oxide (NO) radical scavenging activity (Griess Illosvory reagent); details: for IC50 against NO radical: Fig. 2a
Experimental: as §1
The nitric oxide (NO) radical scavenging activity was estimated by the reaction with Griess Illosvory reagent based on the method proposed by Chakraborthy[34]. The NO scavenging capacities of the samples were compared with that of ascorbic acid. The percent inhibition of the NO radical was calculated. The IC50 of each tested sample was determined by plotting a curve using a series of sample concentrations against the percent of NO inhibition.

α-amylase [3] = assay: Native electrophoretic α-amylase isoenzyme pattern (PAGE); format: biochemical; details: standard enzyme treated with 100 µg/mL
Experimental: (§2) The relative mobility (Rf), band quantity (Qty) and band percent (B%) of the electrophoretically detected isoenzyme types on the PAGE plate were determined using the Quantity One software program (version 4.6.2). The equation proposed by Nei and Li[39] was used to calculate the percentages of similarity index (SI%) and physiological difference (Diff%).

[4] = ABTS radical scavenging assay; details: for IC50 against ABTS radical: Fig. 2a
Experimental: as §1
The ABTS scavenging capacities of the samples were compared with that of ascorbic acid. The percent inhibition of the ABTS radical was calculated. The IC50 of each tested sample was determined by plotting a curve using a series of sample concentrations against the percent of ABTS inhibition.

α-amylase [5] = assay: α-Amylase enzyme inhibition assay; format: biochemical; details: for IC50 against α-amylase: Fig. 2b
Experimental: as §1
(§3) The IC50 of each tested sample was determined by plotting a curve using a series of sample concentrations against the percent of enzyme inhibition.

α-glucosidase [6] = assay: SDS-PAGE electrophoretic α-glucosidase pattern; format: biochemical; details: 100 µg/mL
Experimental: as §2

[7] = DPPH radical scavenging activity; details: for IC50 against DPPH radical: Fig. 2a
Experimental: as §1
The 1,1-Diphenyl-2-picryl-hydrazyl (DPPH) radical scavenging activity was evaluated using the method described by Rahman et al.[32]. Ascorbic acid was used as a positive control at the same concentrations. The inhibition percentage of the DPPH free radical was calculated. The median inhibitory concentration (IC50) of each tested sample was determined by plotting a curve using a series of sample concentrations against the percentage of DPPH inhibition.

[8] = Iron reducing power (IRP), method of Oyaizu
α-glucosidase [9] = assay: α-Glucosidase enzyme inhibition assay; format: biochemical; details: for IC50 against α-glucosidase: Fig. 2b
Experimental: as §1, §3

Structure (SMILES)	TAC ([1]; sample concentration 50 µg/mL) [mg gallic acid/g]	TAC ([1]; sample concentration 100 µg/mL) [mg gallic acid/g]	TAC ([1]; sample concentration 200 µg/mL) [mg gallic acid/g]	NO Inhibition (%) ([2]; sample concentration 50 µg/mL)	NO Inhibition (%) ([2]; sample concentration 100 µg/mL)	NO Inhibition (%) ([2]; sample concentration 200 µg/mL)	Change in electrophoretic α-amylase isoenzyme pattern (α-amylase [3])	Diff% (physiological difference) of electrophoretic α-amylase pattern from the standard enzyme (α-amylase [3]) [%]	SI% (similarity index) of electrophoretic α-amylase pattern to the standard enzyme (α-amylase [3]) [%]	ABTS Inhibition (%) ([4]; sample concentration 50 µg/mL)	ABTS Inhibition (%) ([4]; sample concentration 100 µg/mL)	ABTS Inhibition (%) ([4]; sample concentration 200 µg/mL)	α-Amylase Inhibition (%) (α-amylase [5]; sample concentration 50 µg/mL)	α-Amylase Inhibition (%) (α-amylase [5]; sample concentration 100 µg/mL)	α-Amylase Inhibition (%) (α-amylase [5]; sample concentration 200 µg/mL)	Diff% (decrease in the quantity of the identified α-glucosidase band) (α-glucosidase [6]) [%]	Qty (band quantity) of the α-glucosidase band (α-glucosidase [6])	DPPH Inhibition (%) ([7]; sample concentration 50 µg/mL)	DPPH Inhibition (%) ([7]; sample concentration 100 µg/mL)	DPPH Inhibition (%) ([7]; sample concentration 200 µg/mL)	other results
CC1(C)OC(=O)C[C@H](O)[C@]2(C)[C@H]3CC[C@@]4(C)[C@H](c5ccoc5)OC(=O)[C@H]5O[C@]54[C@]3(C)C(=O)C[C@@H]12 [Cpd2, deacetylnomilin]	21.74 ± 0.06	38.70 ± 0.10	68.88 ± 0.19	13.75 ± 0.05	24.48 ± 0.09	43.58 ± 0.16	slight changes	33.33	66.67	16.59 ± 0.06	29.53 ± 0.10	52.56 ± 0.19	13.49 ± 0.06	24.01 ± 0.10	42.74 ± 0.19	40.64	11.08	18.90 ± 0.05	33.65 ± 0.09	59.90 ± 0.16	melting point: 254 °C; IC50 against NO radical [2]: 7.65 ± 0.04 µg/mL (≈ 16.2 µM); IC50 against ABTS radical [4]: 6.02 ± 0.03 µg/mL (≈ 12.7 µM); IC50 against α-amylase (α-amylase [5]): 5.07 ± 0.03 µg/mL (≈ 10.7 µM); IC50 against DPPH radical [7]: 6.40 ± 0.02 µg/mL (≈ 13.5 µM); IRP ([8]; sample concentration 50 µg/mL): 16.59 ± 0.06 µg/mL; IRP ([8]; sample concentration 100 µg/mL): 29.53 ± 0.10 µg/mL; IRP ([8]; sample concentration 200 µg/mL): 52.56 ± 0.19 µg/mL; IC50 against α-glucosidase (α-glucosidase [9]): 3.89 ± 0.03 µg/mL (≈ 8.23 µM); α-Glucosidase Inhibition (%) (α-glucosidase [9]; sample concentration 50 µg/mL): 9.34 ± 0.06%; α-Glucosidase Inhibition (%) (α-glucosidase [9]; sample concentration 100 µg/mL): 16.63 ± 0.10%; α-Glucosidase Inhibition (%) (α-glucosidase [9]; sample concentration 200 µg/mL): 29.59 ± 0.19%
CC(=O)O[C@H]1CC(=O)OC(C)(C)[C@@H]2CC(=O)[C@]3(C)[C@H](CC[C@@]4(C)[C@H](c5ccoc5)OC(=O)[C@H]5O[C@]543)[C@@]12C [Cpd3, nomilin]	12.90 ± 0.03	22.96 ± 0.05	40.87 ± 0.08	6.07 ± 0.02	10.80 ± 0.04	19.22 ± 0.07	no qualitative or quantitative variations	0.00	100.00	7.75 ± 0.03	13.79 ± 0.05	24.55 ± 0.08	4.65 ± 0.03	8.27 ± 0.05	14.73 ± 0.08	7.51	17.26	11.22 ± 0.02	19.96 ± 0.04	35.53 ± 0.07	IRP ([8]; sample concentration 50 µg/mL): 7.75 ± 0.03 µg/mL; IRP ([8]; sample concentration 100 µg/mL): 13.79 ± 0.05 µg/mL; IRP ([8]; sample concentration 200 µg/mL): 24.55 ± 0.08 µg/mL; α-Glucosidase Inhibition (%) (α-glucosidase [9]; sample concentration 50 µg/mL): 1.50 ± 0.03%; α-Glucosidase Inhibition (%) (α-glucosidase [9]; sample concentration 100 µg/mL): 2.67 ± 0.05%; α-Glucosidase Inhibition (%) (α-glucosidase [9]; sample concentration 200 µg/mL): 4.75 ± 0.08%
CC1(C)OC(=O)C=C[C@]2(C)[C@H]3CC[C@@](C)([C@@H](O[C@@H]4O[C@H](CO)[C@@H](O)[C@H](O)[C@H]4O)c4ccoc4)[C@@]4(O[C@@H]4C(=O)O)[C@]3(C)C(=O)C[C@@H]12 [Cpd4, obacunone 17-O-β-D-glucopyranoside]	27.18 ± 0.07	48.37 ± 0.13	86.10 ± 0.23	18.48 ± 0.06	32.90 ± 0.11	58.55 ± 0.20	severe abnormalities	100.00	0.00	22.03 ± 0.07	39.20 ± 0.13	69.78 ± 0.23	18.93 ± 0.07	33.69 ± 0.13	59.96 ± 0.23	64.41	6.64	23.63 ± 0.06	42.06 ± 0.11	74.87 ± 0.20	IC50 against NO radical [2]: 5.70 ± 0.03 µg/mL (≈ 8.98 µM); IC50 against ABTS radical [4]: 4.53 ± 0.02 µg/mL (≈ 7.14 µM); IC50 against α-amylase (α-amylase [5]): 3.61 ± 0.02 µg/mL (≈ 5.69 µM); IC50 against DPPH radical [7]: 5.12 ± 0.02 µg/mL (≈ 8.07 µM); IRP ([8]; sample concentration 50 µg/mL): 22.03 ± 0.07 µg/mL; IRP ([8]; sample concentration 100 µg/mL): 39.20 ± 0.13 µg/mL; IRP ([8]; sample concentration 200 µg/mL): 69.78 ± 0.23 µg/mL; IC50 against α-glucosidase (α-glucosidase [9]): 2.46 ± 0.02 µg/mL (≈ 3.88 µM); α-Glucosidase Inhibition (%) (α-glucosidase [9]; sample concentration 50 µg/mL): 14.78 ± 0.07%; α-Glucosidase Inhibition (%) (α-glucosidase [9]; sample concentration 100 µg/mL): 26.30 ± 0.13%; α-Glucosidase Inhibition (%) (α-glucosidase [9]; sample concentration 200 µg/mL): 46.81 ± 0.23%
CC1(C)OC2CC(=O)OCC23C1CC(=O)C1(C)C3CC[C@@](C)([C@@H](O[C@@H]2O[C@H](CO)[C@@H](O)[C@H](O)[C@H]2O)c2ccoc2)C12OC2C(=O)O (stereo partly drawn) [Cpd5, limonin 17-O-β-D-glucopyranoside]	27.45 ± 0.07	48.86 ± 0.13	86.96 ± 0.23	18.72 ± 0.06	33.32 ± 0.11	59.30 ± 0.20	severe abnormalities	100.00	0.00	22.30 ± 0.07	39.69 ± 0.13	70.65 ± 0.23	19.20 ± 0.07	34.17 ± 0.13	60.82 ± 0.23	69.27	5.73	23.87 ± 0.06	42.48 ± 0.11	75.62 ± 0.20	IC50 against NO radical [2]: 5.62 ± 0.03 µg/mL (≈ 8.64 µM); IC50 against ABTS radical [4]: 4.48 ± 0.02 µg/mL (≈ 6.89 µM); IC50 against α-amylase (α-amylase [5]): 3.56 ± 0.02 µg/mL (≈ 5.47 µM); IC50 against DPPH radical [7]: 5.07 ± 0.02 µg/mL (≈ 7.79 µM); IRP ([8]; sample concentration 50 µg/mL): 22.30 ± 0.07 µg/mL; IRP ([8]; sample concentration 100 µg/mL): 39.69 ± 0.13 µg/mL; IRP ([8]; sample concentration 200 µg/mL): 70.65 ± 0.23 µg/mL; IC50 against α-glucosidase (α-glucosidase [9]): 2.42 ± 0.02 µg/mL (≈ 3.72 µM); α-Glucosidase Inhibition (%) (α-glucosidase [9]; sample concentration 50 µg/mL): 15.05 ± 0.07%; α-Glucosidase Inhibition (%) (α-glucosidase [9]; sample concentration 100 µg/mL): 26.78 ± 0.13%; α-Glucosidase Inhibition (%) (α-glucosidase [9]; sample concentration 200 µg/mL): 47.67 ± 0.23%

Reference: paper PMC11401861, “Assessment of the in vitro anti-diabetic activity with molecular dynamic simulations of limonoids isolated from Adalia lemon peels” (Scientific Reports, 2024)
